Results taken from PMC12892976, “Alkylation-based optimization of antifungal FPPS inhibitors yields a potent, broad-spectrum lipophilic zoledronate derivative” (mBio, 2025).
Values after ≈ are worked out from the molar mass of the structure shown. Read-outs that look alike come from different tables or passages of the source.

Legend:
Saccharomyces cerevisiae [1] = experiment: MIC/MFC broth microdilution (CLSI); type: cell-based; conditions: Saccharomyces cerevisiae S288c
Protocol: (§1) Antifungal susceptibility was determined by broth microdilution according to the CLSI guidelines described in M27-Ed4 ([16]). […] MFC was determined by back-plating drug-treated cultures from MIC broths onto SDA plates. The MFC was defined as the lowest concentration from which no colonies could be cultured.

Candida albicans [2] = experiment: MIC/MFC broth microdilution (CLSI); type: cell-based; conditions: Candida albicans SC5314
Protocol: as §1

[3] = system: Cryptococcus deuterogattii; experiment: checkerboard drug interaction (FICI, MICc);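 for all read-outs here: simplified diagonal checkerboard screen pairing antifungal drugs with FPPS inhibitors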; type: cell-based; conditions: C. deuterogattii; for INH FD (MIC-MICc fold decrease): fold decrease of inhibitor MIC
Protocol: (§2) Drug interactions between antifungals and FPPS inhibitors were investigated using a simplified checkerboard diagonal screening method ([45]). […] FICIs were determined according to the Loewe additivity model ([17]).

Cryptococcus neoformans [4] = experiment: checkerboard drug interaction (FICI, MICc);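 for all read-outs here: antifungal plus FPPS inhibitor pairs tested against Cryptococcus neoformans by simplified diagonal checkerboard screening, FICI computed under the Loewe additivity model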; type: cell-based; conditions: C. neoformans; for INH FD (MIC-MICc fold decrease): fold decrease of inhibitor MIC
Protocol: as §2

Saccharomyces cerevisiae [5] = experiment: checkerboard drug interaction (FICI, MICc);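 for all read-outs here: simplified diagonal checkerboard screen pairing antifungals with FPPS inhibitors, FICI calculated under the Loewe additivity model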; type: cell-based; set-up: INH MICc / INH MICc (ITR:INH) / INH MICc (KET:INH) / INH MICc (FLC:INH): unit not given beside the values; conditions: S. cerevisiae; for INH FD (MIC-MICc fold decrease): fold decrease of inhibitor MIC
Candida glabrata [6] = experiment: checkerboard drug interaction (FICI, MICc);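 for all read-outs here: simplified diagonal checkerboard screen pairing antifungals with FPPS inhibitors, FICI calculated under the Loewe additivity model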; type: cell-based; conditions: C. glabrata; for INH FD (MIC-MICc fold decrease): fold decrease of inhibitor MIC
Protocol: as §2

Candida albicans [7] = experiment: checkerboard drug interaction (FICI, MICc);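 for all read-outs here: antifungal plus FPPS inhibitor combinations on Candida albicans tested by a simplified diagonal checkerboard screen, with FICI calculated under the Loewe additivity model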; type: cell-based; conditions: C. albicans; for INH FD (MIC-MICc fold decrease): fold decrease of inhibitor MIC
Protocol: as §2

Aspergillus flavus [8] = experiment: checkerboard drug interaction (FICI, MICc);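 note: simplified diagonal checkerboard screen pairing azole antifungals with FPPS inhibitors, FICI calculated under the Loewe additivity model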; type: cell-based; set-up: INH MICc (KET:INH) / INH MICc (FLC:INH): unit not given beside the values; conditions: A. flavus
Aspergillus fumigatus [9] = experiment: checkerboard drug interaction (FICI, MICc);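 for all read-outs here: simplified diagonal checkerboard screen pairing antifungals with FPPS inhibitors against Aspergillus fumigatus, with FICI calculated under the Loewe additivity model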; type: cell-based; conditions: A. fumigatus; for INH FD (MIC-MICc fold decrease): fold decrease of inhibitor MIC
Protocol: as §2

Trichophyton rubrum [10] = experiment: checkerboard drug interaction (FICI, MICc);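 note: simplified diagonal checkerboard screen pairing azole antifungals with FPPS inhibitors, FICI calculated under the Loewe additivity model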; type: cell-based; conditions: T. rubrum
Protocol: as §2

HEK-293T cells = experiment: MTT reduction cytotoxicity assay; type: cell-based; conditions: Homo sapiens, HEK-293T, 72 h, MTT, 72 h
eight fungal species [11] = experiment: MIC/MFC summary across the eight fungal species of Table 1; type: cell-based
Protocol: The antifungal activity of these compounds was evaluated according to CLSI guidelines ([16]).

eight fungal species [12] = experiment: checkerboard interaction with azoles, summary across the eight species; type: cell-based; conditions: geometric mean MIC in combination with azoles
Excerpt: Synergy between lipophilic FPPS inhibitors and azole antifungals was investigated by determining the fractional inhibitory concentration index (FICI) (Fig. 2; Table S1 Fig. S1) ([17]). […]. Derivatives PLA9 and 11, and PDA9, 11, and 12 antagonized azoles in C. albicans, C. neoformans, and C. deuterogattii, yet were largely synergistic in C. glabrata and S. cerevisiae. […].

[13] = system: Cryptococcus deuterogattii; experiment: MIC/MFC broth microdilution (CLSI); conditions: Cryptococcus deuterogattii;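 note: broth microdilution per CLSI M27-Ed4. MFC is the lowest concentration yielding no colonies when MIC broths are subcultured onto SDA plates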
Protocol: as §1

Cryptococcus neoformans [14] = experiment: MIC/MFC broth microdilution (CLSI); conditions: Cryptococcus neoformans;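 note: susceptibility testing followed the CLSI M27-Ed4 broth microdilution document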
Protocol: as §1

Candida glabrata [15] = experiment: MIC/MFC broth microdilution (CLSI); conditions: Nakaseomyces glabratus, CBS138;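 note: broth microdilution following CLSI M27-Ed4, MFC taken as the lowest drug level yielding no growth once MIC wells were subcultured on SDA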
Protocol: as §1

Aspergillus flavus [16] = experiment: MIC/MFC broth microdilution (CLSI); conditions: ATCC204304
Protocol: as §1

Aspergillus fumigatus [17] = experiment: MIC/MFC broth microdilution (CLSI); conditions: ATCC204305
Protocol: as §1

Trichophyton rubrum [18] = experiment: MIC/MFC broth microdilution (CLSI); conditions: Trichophyton rubrum
Protocol: as §1

[19] = FLC:INH combination, MIC of the inhibitor in combination with FLC
[20] = FLC:INH combination, fold decrease of FLC MIC
[21] = ITR:INH combination, MIC of the inhibitor in combination with ITR
[22] = ITR:INH combination, fold decrease of ITR MIC
[23] = KET:INH combination, MIC of the inhibitor in combination with KET
[24] = KET:INH combination, fold decrease of KET MIC
[25] = FLC:INH combination, MIC of FLC in combination with the inhibitor
[26] = ITR:INH combination, MIC of ITR in combination with the inhibitor
[27] = KET:INH combination, MIC of KET in combination with the inhibitor
[28] = Fractional Inhibitory Concentration Index, fluconazole + inhibitor
[29] = Fractional Inhibitory Concentration Index, itraconazole + inhibitor
[30] = Fractional Inhibitory Concentration Index, ketoconazole + inhibitor
[31] = MIC of the inhibitor in combination with fluconazole
[32] = MIC of the inhibitor in combination with itraconazole
[33] = MIC of the inhibitor in combination with ketoconazole
[34] = MIC-MICc fold decrease of fluconazole, negative = increase
[35] = MIC-MICc fold decrease of itraconazole, negative = increase
[36] = MIC-MICc fold decrease of ketoconazole, negative = increase
[37] = MIC-MICc fold decrease of the inhibitor, with fluconazole
[38] = MIC-MICc fold decrease of the inhibitor, with itraconazole
[39] = MIC-MICc fold decrease of the inhibitor, with ketoconazole

CCCCCCCCCCN1CCC[C@H]1C(=O)N[C@@H](CC(=O)OC)C(=O)OC [dmPLA10]
MFC (Saccharomyces cerevisiae [1]): 16 µg/mL (≈ 40.1 µM)
MIC (Saccharomyces cerevisiae [1]): 8 µg/mL (≈ 20.1 µM)
MFC (Candida albicans [2]): 32 µg/mL (≈ 80.3 µM)
MIC (Candida albicans [2]): 32 µg/mL (≈ 80.3 µM)
FICI ([3]; FLC:INH combination): 0.38
INH MICc [3, 19]: 8
FLC FD (MIC-MICc fold decrease) [3, 20]: 8
INH FD (MIC-MICc fold decrease) ([3]; FLC:INH combination): 4
FICI ([3]; ITR:INH combination): 0.5
INH MICc [3, 21]: 8
ITR FD (MIC-MICc fold decrease) [3, 22]: 4
INH FD (MIC-MICc fold decrease) ([3]; ITR:INH combination): 4
FICI ([3]; KET:INH combination): 0.28
INH MICc [3, 23]: 8
KET FD (MIC-MICc fold decrease) [3, 24]: 32
INH FD (MIC-MICc fold decrease) ([3]; KET:INH combination): 4
FICI (Cryptococcus neoformans [4]; FLC:INH combination): 0.75
INH MICc (Cryptococcus neoformans [4]; [19]): 8
FLC FD (MIC-MICc fold decrease) (Cryptococcus neoformans [4]; [20]): 4
INH FD (MIC-MICc fold decrease) (Cryptococcus neoformans [4]; FLC:INH combination): 2
FICI (Cryptococcus neoformans [4]; ITR:INH combination): 0.75
INH MICc (Cryptococcus neoformans [4]; [21]): 8
ITR FD (MIC-MICc fold decrease) (Cryptococcus neoformans [4]; [22]): 4
INH FD (MIC-MICc fold decrease) (Cryptococcus neoformans [4]; ITR:INH combination): 2
FICI (Cryptococcus neoformans [4]; KET:INH combination): 0.75
INH MICc (Cryptococcus neoformans [4]; [23]): 8
KET FD (MIC-MICc fold decrease) (Cryptococcus neoformans [4]; [24]): 4
INH FD (MIC-MICc fold decrease) (Cryptococcus neoformans [4]; KET:INH combination): 2
FICI (Saccharomyces cerevisiae [5]; FLC:INH combination): ≥4
FLC MICc (Saccharomyces cerevisiae [5]; [25]): 8
INH MICc (Saccharomyces cerevisiae [5]; [19]): 16
FLC FD (MIC-MICc fold decrease) (Saccharomyces cerevisiae [5]; [20]): -2
INH FD (MIC-MICc fold decrease) (Saccharomyces cerevisiae [5]; FLC:INH combination): -2
FICI (Saccharomyces cerevisiae [5]; ITR:INH combination): 1.13
ITR MICc (Saccharomyces cerevisiae [5]; [26]): 0.25
INH MICc (Saccharomyces cerevisiae [5]; [21]): 1
ITR FD (MIC-MICc fold decrease) (Saccharomyces cerevisiae [5]; [22]): 1
INH FD (MIC-MICc fold decrease) (Saccharomyces cerevisiae [5]; ITR:INH combination): 8
FICI (Saccharomyces cerevisiae [5]; KET:INH combination): 1.13
KET MICc (Saccharomyces cerevisiae [5]; [27]): 2
INH MICc (Saccharomyces cerevisiae [5]; [23]): 1
KET FD (MIC-MICc fold decrease) (Saccharomyces cerevisiae [5]; [24]): 1
INH FD (MIC-MICc fold decrease) (Saccharomyces cerevisiae [5]; KET:INH combination): 8
FICI (Candida glabrata [6]; FLC:INH combination): ≥4
INH MICc (Candida glabrata [6]; [19]): 16
FLC FD (MIC-MICc fold decrease) (Candida glabrata [6]; [20]): 1
INH FD (MIC-MICc fold decrease) (Candida glabrata [6]; FLC:INH combination): 1
FICI (Candida glabrata [6]; ITR:INH combination): 1.5
INH MICc (Candida glabrata [6]; [21]): 4
ITR FD (MIC-MICc fold decrease) (Candida glabrata [6]; [22]): 2
INH FD (MIC-MICc fold decrease) (Candida glabrata [6]; ITR:INH combination): 4
FICI (Candida glabrata [6]; KET:INH combination): 3
INH MICc (Candida glabrata [6]; [23]): 8
KET FD (MIC-MICc fold decrease) (Candida glabrata [6]; [24]): 1
INH FD (MIC-MICc fold decrease) (Candida glabrata [6]; KET:INH combination): 2
FICI (Candida albicans [7]; FLC:INH combination): 1.5
INH MICc (Candida albicans [7]; [19]): 8
FLC FD (MIC-MICc fold decrease) (Candida albicans [7]; [20]): 1
INH FD (MIC-MICc fold decrease) (Candida albicans [7]; FLC:INH combination): 2
FICI (Candida albicans [7]; ITR:INH combination): 0.75
INH MICc (Candida albicans [7]; [21]): 4
ITR FD (MIC-MICc fold decrease) (Candida albicans [7]; [22]): 2
INH FD (MIC-MICc fold decrease) (Candida albicans [7]; ITR:INH combination): 4
FICI (Candida albicans [7]; KET:INH combination): 0.75
INH MICc (Candida albicans [7]; [23]): 4
KET FD (MIC-MICc fold decrease) (Candida albicans [7]; [24]): 2
INH FD (MIC-MICc fold decrease) (Candida albicans [7]; KET:INH combination): 4
FICI (FLC:INH) (Aspergillus flavus [8]; [28]): 2
FICI (ITR:INH) (Aspergillus flavus [8]; [29]): 1.03
FICI (KET:INH) (Aspergillus flavus [8]; [30]): 1.5
INH MICc (FLC:INH) (Aspergillus flavus [8]; [31]): 64
INH MICc (ITR:INH) (Aspergillus flavus [8]; [32]): 2
INH MICc (KET:INH) (Aspergillus flavus [8]; [33]): 32
FLC FD (FLC:INH) (Aspergillus flavus [8]; [34]): 1
ITR FD (ITR:INH) (Aspergillus flavus [8]; [35]): 1
KET FD (KET:INH) (Aspergillus flavus [8]; [36]): 1
INH FD (FLC:INH) (Aspergillus flavus [8]; [37]): 1
INH FD (ITR:INH) (Aspergillus flavus [8]; [38]): 32
INH FD (KET:INH) (Aspergillus flavus [8]; [39]): 2
FICI (Aspergillus fumigatus [9]; FLC:INH combination): 1.06
FLC MICc (Aspergillus fumigatus [9]; [25]): 8
INH MICc (Aspergillus fumigatus [9]; [19]): 16
FLC FD (MIC-MICc fold decrease) (Aspergillus fumigatus [9]; [20]): 16
INH FD (MIC-MICc fold decrease) (Aspergillus fumigatus [9]; FLC:INH combination): 1
FICI (Aspergillus fumigatus [9]; ITR:INH combination): 0.63
ITR MICc (Aspergillus fumigatus [9]; [26]): 0.063
INH MICc (Aspergillus fumigatus [9]; [21]): 2
ITR FD (MIC-MICc fold decrease) (Aspergillus fumigatus [9]; [22]): 2
INH FD (MIC-MICc fold decrease) (Aspergillus fumigatus [9]; ITR:INH combination): 8
FICI (Aspergillus fumigatus [9]; KET:INH combination): 2.25
KET MICc (Aspergillus fumigatus [9]; [27]): 1
INH MICc (Aspergillus fumigatus [9]; [23]): 32
KET FD (MIC-MICc fold decrease) (Aspergillus fumigatus [9]; [24]): 4
INH FD (MIC-MICc fold decrease) (Aspergillus fumigatus [9]; KET:INH combination): -2
FICI (FLC:INH) (Trichophyton rubrum [10]; [28]): ≥4
FICI (ITR:INH) (Trichophyton rubrum [10]; [29]): 1.03
FICI (KET:INH) (Trichophyton rubrum [10]; [30]): 1.06
INH MICc (FLC:INH) (Trichophyton rubrum [10]; [31]): 64
INH MICc (ITR:INH) (Trichophyton rubrum [10]; [32]): 8
INH MICc (KET:INH) (Trichophyton rubrum [10]; [33]): 8
FLC FD (FLC:INH) (Trichophyton rubrum [10]; [34]): 2
ITR FD (ITR:INH) (Trichophyton rubrum [10]; [35]): 32
KET FD (KET:INH) (Trichophyton rubrum [10]; [36]): 16
INH FD (FLC:INH) (Trichophyton rubrum [10]; [37]): < -4
INH FD (ITR:INH) (Trichophyton rubrum [10]; [38]): 1
INH FD (KET:INH) (Trichophyton rubrum [10]; [39]): 1
IC50 (HEK-293T cells; HEK-293T cells, read-out: IC50): 1.57 µg/mL (≈ 3.95 µM)
IC50 (HEK-293T cells; read-out: HEK IC50): 1.57 µg/mL (≈ 3.95 µM)
Geometric mean MFC (eight fungal species [11]; across eight species): 64.0 µg/mL
MFC (eight fungal species [11]; across eight species, read-out: Geometric mean MFC): 64 µg/mL (≈ 161 µM)
MIC (eight fungal species [11]; geometric mean across eight species, read-out: GM fungal MIC): 20.7 µg/mL (≈ 51.9 µM)
MIC (eight fungal species [11]; read-out: Geometric mean MIC): 20.7 µg/mL (≈ 51.9 µM)
GM fungal MICc (eight fungal species [12]): 8
MFC [13]: 128 µg/mL (≈ 321 µM)
MIC [13]: 16 µg/mL (≈ 40.1 µM)
MFC (Cryptococcus neoformans [14]): 64 µg/mL (≈ 161 µM)
MIC (Cryptococcus neoformans [14]): 16 µg/mL (≈ 40.1 µM)
MFC (Candida glabrata [15]): 32 µg/mL (≈ 80.3 µM)
MIC (Candida glabrata [15]): 32 µg/mL (≈ 80.3 µM)
MFC (Aspergillus flavus [16]): 64 µg/mL (≈ 161 µM)
MIC (Aspergillus flavus [16]): 64 µg/mL (≈ 161 µM)
MFC (Aspergillus fumigatus [17]): 128 µg/mL (≈ 321 µM)
MIC (Aspergillus fumigatus [17]): 32 µg/mL (≈ 80.3 µM)
MFC (Trichophyton rubrum [18]): > 128 µg/mL
MIC (Trichophyton rubrum [18]): 8 µg/mL (≈ 20.1 µM)
